In patent US20240174611A1 (Rappta Therapeutics Oy, priority 2021, published 2024):

Tested on: LNCaP cells
Test: LNCaP cell viability assay (MTS)
Format: cell-based
Conditions: Homo sapiens, LNCaP, 48 h, LNCaP cell line, 48 hours treatment
Procedure: LNCaP cell line was used for the cell viability assay. LNCaP cells were plated in 96-well plates at a density of 5000 cells per well. After 24 hours of plating, the cells were treated with increasing doses of compound 1-100 ranging from 1 μM to 80 μM. Relative cell numbers were analyzed after 48 hours using 3-(4,5-dimethylthiazol-2-yl)-5-(3-carboxymethoxyphenyl)-2-(4-sulfophenyl)-2H-tetrazolium (MTS) assay (Promega) according to the manufacturer's instructions.
The cell viability data was analyzed with GraphPad Prism software. The values were log transformed and analyzed with non-linear regression (curve-fit) using log(inhibitor) vs. response—variable slope (four parameters) and constraining the bottom to equal zero. Unless otherwise indicated, the GI50 values provided in Table 35 correspond to the LNCaP cell viability assays.

Row | Compound | GI50 [µM]
1 | O=S(=O)(NC1(c2ccc(Cl)cc2)CCNC1)c1ccc(Oc2ccc(C(F)(F)F)cc2)cc1 (stereo not drawn) [Compound 57, N-(3-(4-chlorophenyl)pyrrolidin-3-yl)-4-(4-(trifluoromethyl)phenoxy)benzenesulfonamide] | 10.6
2 | O=S(=O)(NC1(c2ccc(Cl)c(Cl)c2)CCNCC1)c1ccc(OC(F)(F)F)cc1 [Compound 49, N-(4-(3,4-dichlorophenyl)piperidin-4-yl)-4-(trifluoromethoxy)benzenesulfonamide] | 6.75
3 | O=S(=O)(NC1(c2ccc(Cl)cc2)CCNCC1)c1ccc(C(F)(F)F)cc1 [Compound 97, N-(4-(4-chlorophenyl)piperidin-4-yl)-4-(trifluoromethyl)benzenesulfonamide] | 11.6
4 | CN1CC[C@@H](NS(=O)(=O)c2ccc(OC(F)(F)F)cc2)[C@@H]1c1ccc(Cl)cc1 (racemic) [Compound 9] | 51.5
5 | CC(C)(C)OC(=O)N1CCC(NS(=O)(=O)c2ccc(OC(F)(F)F)cc2)(c2ccc(Cl)cc2)CC1 [Compound 53, tert-butyl 4-(4-chlorophenyl)-4-((4-(trifluoromethoxy)phenyl)sulfonamido)piperidine-1-carboxylate] | 16.3
6 | CCC1CC1(NS(=O)(=O)c1ccc(OC(F)(F)F)cc1)c1cccc(C)c1 (stereo not drawn) [Compound 28, N-(2-ethyl-1-(m-tolyl)cyclopropyl)-4-(trifluoromethoxy)benzene-sulfonamide] | 62
7 | O=S(=O)(NC1CCCCCC1c1ccccc1)c1ccc(OC(F)(F)F)cc1 (stereo not drawn) [Compound 13, N-(2-phenylcycloheptyl)-4-(trifluoromethoxy)benzene-sulfonamide] | 55.6
8 | CCOc1cc(CN2CCC(NS(=O)(=O)c3ccc(OC(F)(F)F)cc3)CC2)ccc1O [Compound 30, N-(1-(3-ethoxy-4-hydroxybenzyl)piperidin-4-yl)-4-(trifluoromethoxy)benzene-sulfonamide] | 30
9 | O=S(=O)(NC1(c2ccc(Cl)c(F)c2)CCNC1)c1ccc(OC(F)(F)F)cc1 (stereo not drawn) [Compound 52, N-(3-(4-chloro-3-fluorophenyl)pyrrolidin-3-yl)-4-(trifluoromethoxy)benzenesulfonamide] | 23.4
10 | CC1(C)C[C@H](NS(=O)(=O)c2ccc(OC(F)(F)F)cc2)c2cc(F)ccc2O1 [Compound 27, (S)-N-(6-fluoro-2,2-dimethylchroman-4-yl)-4-(trifluoromethoxy)benzene-sulfonamide] | 12
11 | CC(C)(C)OC(=O)N1CCC(NS(=O)(=O)c2ccc(OC(F)(F)F)cc2)(c2ccc(Cl)cc2)C1 (stereo not drawn) [Compound 70] | 21.7
12 | O=S(=O)(NC1CCc2c(Cl)cc(Cl)cc21)c1ccc(OC(F)(F)F)cc1 (stereo not drawn) [Compound 11, N-(4,6-dichloro-2,3-dihydro-1H-inden-1-yl)-4-(trifluoromethoxy)benzene-sulfonamide] | 44.2
13 | O=S(=O)(NC1(c2ncc(Cl)cc2F)CCNCC1)c1ccc(OC(F)(F)F)cc1 [Compound 95, N-(4-(5-chloro-3-fluoropyridin-2-yl)piperidin-4-yl)-4-(trifluoromethoxy)benzenesulfonamide] | 45.8
14 | O=S(=O)(NC1(c2ccccc2)CCNCC1)c1ccc(OC(F)(F)F)nc1 [Compound 60, N-(4-phenylpiperidin-4-yl)-6-(trifluoromethoxy)pyridine-3-sulfonamide] | 49.6
15 | O=S(=O)(NC1(c2cccc(Cl)c2)CCCC1)c1ccc(OC(F)(F)F)cc1 [Compound 14, N-(1-(3-chlorophenyl)cyclopentyl)-4-(trifluoromethoxy)benzene-sulfonamide] | 42.8
16 | O=S(=O)(NC1(c2ccc(Cl)s2)CCNCC1)c1ccc(OC(F)(F)F)cc1 [Compound 91, N-(4-(5-chlorothiophen-2-yl)piperidin-4-yl)-4-(trifluoromethoxy)benzenesulfonamide] | 9.6
17 | O=S(=O)(N[C@@H]1CNC[C@@H]1c1ccc(Cl)c(Cl)c1)c1ccc(OC(F)(F)F)cc1 (racemic) [Compound 51, rac N-((3R,4R)-4-(3,4-dichlorophenyl)pyrrolidin-3-yl)-4-(trifluoromethoxy)benzenesulfonamide] | 10.4
18 | CC(C)Oc1ccc(S(=O)(=O)NC2(c3ccc(Cl)cc3)CCNCC2)cc1 [Compound 62, N-(4-(4-chlorophenyl)piperidin-4-yl)-4-isopropoxybenzenesulfonamide] | 11.3
19 | O=S(=O)(N[C@@H]1CCN(C2CC2)[C@H]1c1ccc(F)c(F)c1)c1ccc(OC(F)(F)F)cc1 (racemic) [Compound 34] | 33
20 | O=S(=O)(NC1(c2ccc(F)cc2)CCNC1)c1ccc(OC(F)(F)F)cc1 (stereo not drawn) [Compound 74, N-(3-(4-fluorophenyl)pyrrolidin-3-yl)-4-(trifluoromethoxy)benzenesulfonamide] | 47.9
21 | CN(C1(c2ccc(Cl)cc2)CCNC1)S(=O)(=O)c1ccc(OC(F)(F)F)cc1 (stereo not drawn) [Compound 85, N-(3-(4-chlorophenyl)pyrrolidin-3-yl)-N-methyl-4-(trifluoromethoxy)benzenesulfonamide] | 33.5

Row | Compound | GI50 [µM]
22 | O=S(=O)(NC1(c2ccc(Cl)c(Cl)c2)CCN(Cc2ccccc2)C1)c1ccc(Oc2ccc(C(F)(F)F)cc2)cc1 (stereo not drawn) [Compound 55, N-(1-benzyl-3-(3,4-dichlorophenyl)pyrrolidin-3-yl)-4-(4-(trifluoromethyl)phenoxy)benzenesulfonamide] | 38
23 | CCC(C(=O)N1CCC(NS(=O)(=O)c2ccc(OC(F)(F)F)cc2)CC1)c1ccccc1 (stereo not drawn) [Compound 17, N-(1-(2-phenylbutanoyl)piperidin-4-yl)-4-(trifluoromethoxy)benzene-sulfonamide] | 58
24 | O=S(=O)(NC1CCCC1c1ccc(Cl)c(Cl)c1)c1ccc(OC(F)(F)F)cc1 (single isomer, unassigned) [Compound 43, N-(2-(3,4-dichlorophenyl)cyclopentyl)-4-(trifluoromethoxy)benzenesulfonamide] | 37.5
25 | COC(=O)C#CC1(NS(=O)(=O)c2ccc(OC(F)(F)F)cc2)CCCC1 [Compound 19] | 43
26 | O=S(=O)(NC1(c2ccc(Cl)cn2)CCNCC1)c1ccc(OC(F)(F)F)cc1 [Compound 87, N-(4-(5-chloropyridin-2-yl)piperidin-4-yl)-4-(trifluoromethoxy)benzenesulfonamide] | 46.6
27 | O=S(=O)(NC1(c2ccccc2)CCNC1)c1ccc(OC(F)(F)F)cc1 (stereo not drawn) [Compound 36, N-(3-phenylpyrrolidin-3-yl)-4-(trifluoromethoxy)benzene-sulfonamide] | 41.9
28 | N=S(=O)(NC1(c2ccc(Cl)cc2)CCNC1)c1ccc(OC(F)(F)F)cc1 (stereo not drawn) [Compound 63, N-(3-(4-chlorophenyl)pyrrolidin-3-yl)-4-(trifluoromethoxy)benzenesulfonimidamide] | 38.4
29 | O=S(=O)(NC1(c2ccc(F)cc2F)CCNCC1)c1ccc(OC(F)(F)F)cc1 [Compound 83, N-(4-(2,4-difluorophenyl)piperidin-4-yl)-4-(trifluoromethoxy)benzenesulfonamide] | 32
30 | O=S(=O)(NC1(c2ccc(Cl)cc2)CCNC1)c1ccc(OC(F)(F)F)nc1 (stereo not drawn) [Compound 64, N-(3-(4-chlorophenyl)pyrrolidin-3-yl)-6-(trifluoromethoxy)pyridine-3-sulfonamide] | 44.9
31 | CCOC(=O)C1(NS(=O)(=O)c2ccc(OC(F)(F)F)cc2)CCc2ccccc21 (stereo not drawn) [Compound 20] | 60
32 | CC(C)C1N(Cc2ccccc2)CC12C[C@@H](O)[C@H](NS(=O)(=O)c1ccc(OC(F)(F)F)cc1)C2 (mixture of isomers) [Compound 31] | 45
33 | O=S(=O)(NC1(c2ccccc2)CC2CCC(C1)N2)c1ccc(OC(F)(F)F)cc1 (stereo not drawn) [Compound 86, N-(3-phenyl-8-azabicyclo[3.2.1]octan-3-yl)-4-(trifluoromethoxy)benzenesulfonamide] | 23.7
34 | O=S(=O)(NC1(c2ccc(Cl)cc2)CCN(C2COC2)C1)c1ccc(OC(F)(F)F)cc1 (stereo not drawn) [Compound 71, N-(3-(4-chlorophenyl)-1-(oxetan-3-yl)pyrrolidin-3-yl)-4-(trifluoromethoxy)benzenesulfonamide] | 59.1
35 | CC(C)Oc1ccc(S(=O)(=O)NC2(c3ccc(Cl)cc3)CCNCC2)cn1 [Compound 67, N-(4-(4-chlorophenyl)piperidin-4-yl)-6-isopropoxypyridine-3-sulfonamide] | 18.2
36 | O=S(=O)(NC1(c2ccc(Cl)cc2)CCNC1)c1ccc(OC(F)(F)F)cc1 (stereo not drawn) [Compound 39, N-(3-(4-chlorophenyl)pyrrolidin-3-yl)-4-(trifluoromethoxy)benzene-sulfonamide] | 14
37 | O=S(=O)(NC1(c2ccc(Cl)c(Cl)c2)CC1)c1ccc(OC(F)(F)F)cc1 [Compound 89, N-(1-(3,4-dichlorophenyl)cyclopropyl)-4-(trifluoromethoxy)benzenesulfonamide] | 46.6
38 | CN1CCC(NS(=O)(=O)c2ccc(OC(F)(F)F)cc2)(c2ccccc2)CC1 [Compound 61, N-(1-methyl-4-phenylpiperidin-4-yl)-4-(trifluoromethoxy)benzenesulfonamide] | 44.1
39 | Nc1cc(S(=O)(=O)NC2(c3ccc(Cl)cc3)CCNCC2)ccc1OC(F)(F)F [Compound 99, 3-amino-N-(4-(4-chlorophenyl)piperidin-4-yl)-4-(trifluoromethoxy)benzenesulfonamide] | 46.1
40 | O=S(=O)(NC1CCN(c2cccc(OC(F)(F)F)c2)C1)c1ccc(OC(F)(F)F)cc1 (stereo not drawn) [Compound 6] | 59.3
41 | O=S(=O)(NC1(c2ccc(Cl)cc2)CNC1)c1ccc(OC(F)(F)F)cc1 [Compound 47, N-(3-(4-chlorophenyl)azetidin-3-yl)-4-(trifluoromethoxy)benzenesulfonamide] | 31.8
42 | O=S(=O)(NC1(c2ncc(Cl)s2)CCNCC1)c1ccc(OC(F)(F)F)cc1 [Compound 73, N-(4-(5-chlorothiazol-2-yl)piperidin-4-yl)-4-(trifluoromethoxy)benzenesulfonamide] | 56.4
